Assay results from publication PMC9571063 (Molecules, 2022).

Experiments:
CAMK1G = biological target: T1, CAMK1G (Homo sapiens, UniProt Q96NX5); test: KINOMEscan; type: binding; details: read-out: Percent Control
T1 construct: purchased Eurofins DiscoverX KINOMEscan (scanMAX 468)

PIK3CA(M1043I) = biological target: T2, PIK3CA(M1043I) (Homo sapiens, UniProt P42336, M1043I); test: KINOMEscan; type: binding; details: read-out: Percent Control
T2 construct: purchased Eurofins DiscoverX KINOMEscan (scanMAX 468)

GRK3 = biological target: T3, GRK3 (Homo sapiens, UniProt P35626); test: KINOMEscan; type: binding; details: read-out: Percent Control
T3 construct: purchased Eurofins DiscoverX KINOMEscan (scanMAX 468)

PRKR = biological target: T4, PRKR (Homo sapiens, UniProt P19525); test: KINOMEscan; type: binding; details: read-out: Percent Control
T4 construct: purchased Eurofins DiscoverX KINOMEscan (scanMAX 468)
T4 sequence (P19525 whole entry): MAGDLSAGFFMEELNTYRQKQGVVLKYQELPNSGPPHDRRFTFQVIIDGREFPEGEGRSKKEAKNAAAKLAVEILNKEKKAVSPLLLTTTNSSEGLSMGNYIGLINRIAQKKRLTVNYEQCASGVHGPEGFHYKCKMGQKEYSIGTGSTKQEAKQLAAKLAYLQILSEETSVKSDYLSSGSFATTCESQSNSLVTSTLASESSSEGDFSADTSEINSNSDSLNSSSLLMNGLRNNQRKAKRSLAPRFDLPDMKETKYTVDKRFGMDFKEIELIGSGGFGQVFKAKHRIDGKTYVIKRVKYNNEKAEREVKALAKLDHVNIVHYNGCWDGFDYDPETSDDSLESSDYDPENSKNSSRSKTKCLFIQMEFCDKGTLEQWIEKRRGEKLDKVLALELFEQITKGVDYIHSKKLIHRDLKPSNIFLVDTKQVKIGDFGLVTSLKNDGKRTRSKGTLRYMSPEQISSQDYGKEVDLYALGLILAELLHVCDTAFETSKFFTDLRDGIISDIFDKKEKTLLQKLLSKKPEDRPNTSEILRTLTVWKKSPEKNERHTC

CAMK1 = biological target: T5, CAMK1 (Homo sapiens, UniProt Q14012); test: KINOMEscan; type: binding; details: read-out: Percent Control
T5 construct: purchased Eurofins DiscoverX KINOMEscan (scanMAX 468)
T5 sequence (Q14012 whole entry): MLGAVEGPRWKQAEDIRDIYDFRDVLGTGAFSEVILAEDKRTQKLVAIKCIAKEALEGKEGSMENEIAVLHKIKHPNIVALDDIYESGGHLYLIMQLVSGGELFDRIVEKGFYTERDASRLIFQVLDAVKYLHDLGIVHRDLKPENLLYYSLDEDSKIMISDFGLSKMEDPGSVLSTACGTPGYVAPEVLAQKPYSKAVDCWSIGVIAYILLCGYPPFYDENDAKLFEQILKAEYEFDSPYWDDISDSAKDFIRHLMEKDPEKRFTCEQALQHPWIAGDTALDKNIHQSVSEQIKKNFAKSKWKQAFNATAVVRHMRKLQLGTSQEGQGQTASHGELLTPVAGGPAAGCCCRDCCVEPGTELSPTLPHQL

ACVRL1 = biological target: T6, ACVRL1 (Homo sapiens, UniProt P37023); test: KINOMEscan; type: binding; details: read-out: Percent Control
T6 construct: purchased Eurofins DiscoverX KINOMEscan (scanMAX 468)
T6 sequence (P37023 22-503): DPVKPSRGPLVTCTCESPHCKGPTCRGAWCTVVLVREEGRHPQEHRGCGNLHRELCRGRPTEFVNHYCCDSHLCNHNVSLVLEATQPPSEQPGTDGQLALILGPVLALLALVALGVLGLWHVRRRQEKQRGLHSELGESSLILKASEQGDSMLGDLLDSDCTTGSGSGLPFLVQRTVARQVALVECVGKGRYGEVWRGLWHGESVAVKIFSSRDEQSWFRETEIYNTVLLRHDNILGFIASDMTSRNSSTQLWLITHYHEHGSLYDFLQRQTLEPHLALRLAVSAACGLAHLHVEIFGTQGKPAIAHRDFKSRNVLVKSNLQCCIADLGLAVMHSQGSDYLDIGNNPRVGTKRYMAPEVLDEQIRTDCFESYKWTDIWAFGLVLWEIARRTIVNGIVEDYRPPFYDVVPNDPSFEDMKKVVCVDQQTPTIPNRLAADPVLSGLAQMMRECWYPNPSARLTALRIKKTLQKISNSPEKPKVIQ

TSSK1B = biological target: T7, TSSK1B (Homo sapiens, UniProt Q9BXA7); test: KINOMEscan; type: binding; details: read-out: Percent Control
T7 construct: purchased Eurofins DiscoverX KINOMEscan (scanMAX 468)

[1] = biological target: T8, EGFR(L747-E749del, A750P) (Homo sapiens, UniProt P00533, A750P/DEL747-749); test: KINOMEscan; type: binding; details: read-out: Percent Control
T8 construct: purchased Eurofins DiscoverX KINOMEscan (scanMAX 468)

PIK3CA(E545K) = biological target: T9, PIK3CA(E545K) (Homo sapiens, UniProt P42336, E545K); test: KINOMEscan; type: binding; details: read-out: Percent Control
T9 construct: purchased Eurofins DiscoverX KINOMEscan (scanMAX 468)

SBK1 = biological target: T10, SBK1 (Homo sapiens, UniProt Q52WX2); test: KINOMEscan; type: binding; details: read-out: Percent Control
T10 construct: purchased Eurofins DiscoverX KINOMEscan (scanMAX 468)

LIMK2 = biological target: T11, LIMK2 (Homo sapiens, UniProt P53671); test: KINOMEscan; type: binding; details: read-out: Percent Control
T11 construct: purchased Eurofins DiscoverX KINOMEscan (scanMAX 468)

[2] = biological target: T12, ABL1(T315I)-phosphorylated (Homo sapiens, UniProt P00519, T315I); test: KINOMEscan; type: binding; details: read-out: Percent Control
T12 construct: purchased Eurofins DiscoverX KINOMEscan (scanMAX 468)

CIT = biological target: T13, CIT (Homo sapiens, UniProt O14578); test: KINOMEscan; type: binding; details: read-out: Percent Control
T13 construct: purchased Eurofins DiscoverX KINOMEscan (scanMAX 468)

TNK2 = biological target: T14, TNK2 (Homo sapiens, UniProt Q07912); test: KINOMEscan; type: binding; details: read-out: Percent Control
T14 construct: purchased Eurofins DiscoverX KINOMEscan (scanMAX 468)
T14 sequence (Q07912 whole entry): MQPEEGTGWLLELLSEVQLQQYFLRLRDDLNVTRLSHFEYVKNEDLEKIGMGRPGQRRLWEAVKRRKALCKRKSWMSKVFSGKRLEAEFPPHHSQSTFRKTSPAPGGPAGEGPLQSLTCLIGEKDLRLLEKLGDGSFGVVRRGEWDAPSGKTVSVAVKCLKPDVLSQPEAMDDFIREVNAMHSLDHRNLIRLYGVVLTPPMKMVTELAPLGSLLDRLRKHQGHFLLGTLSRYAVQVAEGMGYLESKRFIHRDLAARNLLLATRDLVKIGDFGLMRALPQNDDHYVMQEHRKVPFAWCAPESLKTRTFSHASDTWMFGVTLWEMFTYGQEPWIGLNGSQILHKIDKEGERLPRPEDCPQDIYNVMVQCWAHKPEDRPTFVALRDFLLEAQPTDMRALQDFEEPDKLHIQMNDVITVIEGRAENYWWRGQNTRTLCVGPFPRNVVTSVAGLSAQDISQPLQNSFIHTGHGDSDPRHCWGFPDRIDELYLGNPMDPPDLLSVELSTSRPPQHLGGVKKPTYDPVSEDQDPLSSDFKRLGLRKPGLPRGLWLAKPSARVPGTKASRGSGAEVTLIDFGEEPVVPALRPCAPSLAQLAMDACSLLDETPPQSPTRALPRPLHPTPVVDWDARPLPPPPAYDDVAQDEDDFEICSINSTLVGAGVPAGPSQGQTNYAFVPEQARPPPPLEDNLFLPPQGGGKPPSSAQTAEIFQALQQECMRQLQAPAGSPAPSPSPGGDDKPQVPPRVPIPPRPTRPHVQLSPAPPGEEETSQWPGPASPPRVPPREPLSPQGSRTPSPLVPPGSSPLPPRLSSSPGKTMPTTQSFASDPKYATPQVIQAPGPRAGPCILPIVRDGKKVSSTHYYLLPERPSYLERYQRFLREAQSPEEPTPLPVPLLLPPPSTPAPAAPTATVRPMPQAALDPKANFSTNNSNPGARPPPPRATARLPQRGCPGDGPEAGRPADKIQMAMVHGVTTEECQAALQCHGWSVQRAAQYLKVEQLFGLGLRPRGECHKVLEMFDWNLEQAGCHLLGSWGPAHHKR

EGFR = biological target: T15, EGFR (Homo sapiens, UniProt P00533); test: KINOMEscan; type: binding; details: read-out: Percent Control
T15 construct: purchased Eurofins DiscoverX KINOMEscan (scanMAX 468)

MAP4K3 = biological target: T16, MAP4K3 (Homo sapiens, UniProt Q8IVH8); test: KINOMEscan; type: binding; details: read-out: Percent Control
T16 construct: purchased Eurofins DiscoverX KINOMEscan (scanMAX 468)
T16 sequence (Q8IVH8 whole entry): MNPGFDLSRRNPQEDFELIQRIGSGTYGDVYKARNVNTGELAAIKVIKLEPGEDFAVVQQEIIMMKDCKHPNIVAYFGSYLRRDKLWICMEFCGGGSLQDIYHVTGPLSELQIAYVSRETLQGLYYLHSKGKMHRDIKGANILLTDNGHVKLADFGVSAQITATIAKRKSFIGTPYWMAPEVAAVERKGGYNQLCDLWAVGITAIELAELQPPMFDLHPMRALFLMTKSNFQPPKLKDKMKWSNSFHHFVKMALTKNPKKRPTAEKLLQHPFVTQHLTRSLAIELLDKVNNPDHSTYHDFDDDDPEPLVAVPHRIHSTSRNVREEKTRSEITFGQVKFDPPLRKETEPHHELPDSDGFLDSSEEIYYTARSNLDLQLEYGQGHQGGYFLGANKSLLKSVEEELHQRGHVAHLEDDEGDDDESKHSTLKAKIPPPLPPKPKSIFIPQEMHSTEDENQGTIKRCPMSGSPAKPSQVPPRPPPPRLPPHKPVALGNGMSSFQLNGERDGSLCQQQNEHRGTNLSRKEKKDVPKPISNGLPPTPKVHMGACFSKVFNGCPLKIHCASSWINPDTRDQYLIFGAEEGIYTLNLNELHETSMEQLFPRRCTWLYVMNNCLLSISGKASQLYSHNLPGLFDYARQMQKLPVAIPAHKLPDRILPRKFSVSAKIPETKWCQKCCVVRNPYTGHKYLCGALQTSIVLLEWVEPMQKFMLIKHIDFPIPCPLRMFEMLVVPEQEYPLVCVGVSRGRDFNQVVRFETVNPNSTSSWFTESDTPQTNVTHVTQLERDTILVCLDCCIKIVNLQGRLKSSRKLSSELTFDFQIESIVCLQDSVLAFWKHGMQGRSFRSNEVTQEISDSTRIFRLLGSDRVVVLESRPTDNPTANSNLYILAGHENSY

FAK = biological target: T17, FAK (Homo sapiens, UniProt Q05397); test: KINOMEscan; type: binding; details: read-out: Percent Control
T17 construct: purchased Eurofins DiscoverX KINOMEscan (scanMAX 468)

MAP3K15 = biological target: T18, MAP3K15 (Homo sapiens, UniProt Q6ZN16); test: KINOMEscan; type: binding; details: read-out: Percent Control
T18 construct: purchased Eurofins DiscoverX KINOMEscan (scanMAX 468)
T18 sequence (Q6ZN16 whole entry): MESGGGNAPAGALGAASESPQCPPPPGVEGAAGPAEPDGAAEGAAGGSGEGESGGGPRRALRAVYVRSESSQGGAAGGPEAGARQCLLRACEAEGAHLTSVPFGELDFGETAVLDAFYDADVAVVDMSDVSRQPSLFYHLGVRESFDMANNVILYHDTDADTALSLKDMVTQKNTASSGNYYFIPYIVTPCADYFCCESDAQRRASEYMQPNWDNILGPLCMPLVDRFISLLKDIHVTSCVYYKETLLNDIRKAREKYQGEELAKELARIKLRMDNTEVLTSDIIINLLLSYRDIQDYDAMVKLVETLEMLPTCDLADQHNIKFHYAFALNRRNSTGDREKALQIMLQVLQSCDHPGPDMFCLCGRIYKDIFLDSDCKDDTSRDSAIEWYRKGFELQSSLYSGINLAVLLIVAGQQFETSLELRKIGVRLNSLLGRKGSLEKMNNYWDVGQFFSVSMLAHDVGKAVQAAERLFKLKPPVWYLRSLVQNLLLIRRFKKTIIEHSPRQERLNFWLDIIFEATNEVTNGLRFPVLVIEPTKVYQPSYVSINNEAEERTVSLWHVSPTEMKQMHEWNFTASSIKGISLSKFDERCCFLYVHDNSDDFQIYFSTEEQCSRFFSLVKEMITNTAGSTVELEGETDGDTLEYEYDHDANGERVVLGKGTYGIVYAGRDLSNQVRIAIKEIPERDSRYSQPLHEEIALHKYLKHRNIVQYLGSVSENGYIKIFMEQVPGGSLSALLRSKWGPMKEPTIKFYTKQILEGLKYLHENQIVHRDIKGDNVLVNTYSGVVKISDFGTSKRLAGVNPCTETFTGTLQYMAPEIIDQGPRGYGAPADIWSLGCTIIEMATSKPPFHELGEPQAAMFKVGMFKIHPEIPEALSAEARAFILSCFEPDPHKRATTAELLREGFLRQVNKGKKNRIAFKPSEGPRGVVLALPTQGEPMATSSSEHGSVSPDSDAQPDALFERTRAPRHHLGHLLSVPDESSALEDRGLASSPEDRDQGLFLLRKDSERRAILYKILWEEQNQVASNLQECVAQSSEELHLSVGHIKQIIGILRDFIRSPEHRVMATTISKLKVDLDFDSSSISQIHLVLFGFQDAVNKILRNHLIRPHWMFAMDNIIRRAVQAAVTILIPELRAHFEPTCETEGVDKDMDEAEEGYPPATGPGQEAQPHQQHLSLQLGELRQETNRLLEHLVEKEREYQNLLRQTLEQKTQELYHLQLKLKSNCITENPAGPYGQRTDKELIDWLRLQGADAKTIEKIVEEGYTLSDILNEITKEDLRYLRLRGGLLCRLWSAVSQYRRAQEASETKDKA

[3] = biological target: T19, ABL1(H396P)-phosphorylated (Homo sapiens, UniProt P00519, H396P); test: KINOMEscan; type: binding; details: read-out: Percent Control
T19 construct: purchased Eurofins DiscoverX KINOMEscan (scanMAX 468)

PFTK1 = biological target: T20, PFTK1 (Homo sapiens, UniProt O94921); test: KINOMEscan; type: binding; details: read-out: Percent Control
T20 construct: purchased Eurofins DiscoverX KINOMEscan (scanMAX 468)

EGFR(G719S) = biological target: T21, EGFR(G719S) (Homo sapiens, UniProt P00533, G719S); test: KINOMEscan; type: binding; details: read-out: Percent Control
T21 construct: purchased Eurofins DiscoverX KINOMEscan (scanMAX 468)

ERK5 = biological target: T22, ERK5 (Homo sapiens, UniProt Q13164); test: KINOMEscan; type: binding; details: read-out: Percent Control
T22 construct: purchased Eurofins DiscoverX KINOMEscan (scanMAX 468)

MEK2 = biological target: T23, MEK2 (Homo sapiens, UniProt P36507); test: KINOMEscan; type: binding; details: read-out: Percent Control
T23 construct: purchased Eurofins DiscoverX KINOMEscan (scanMAX 468)
T23 sequence (P36507 whole entry): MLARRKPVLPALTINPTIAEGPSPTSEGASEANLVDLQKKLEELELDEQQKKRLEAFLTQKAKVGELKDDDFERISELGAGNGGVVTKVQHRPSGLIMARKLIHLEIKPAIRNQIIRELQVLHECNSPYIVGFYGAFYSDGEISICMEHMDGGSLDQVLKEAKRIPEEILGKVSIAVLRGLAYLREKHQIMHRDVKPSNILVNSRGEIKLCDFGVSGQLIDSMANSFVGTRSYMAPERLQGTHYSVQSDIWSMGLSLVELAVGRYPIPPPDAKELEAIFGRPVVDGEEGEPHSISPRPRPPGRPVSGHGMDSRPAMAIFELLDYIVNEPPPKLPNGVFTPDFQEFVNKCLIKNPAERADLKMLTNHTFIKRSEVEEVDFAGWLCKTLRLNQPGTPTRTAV

PLK2 = biological target: T24, PLK2 (Homo sapiens, UniProt Q9NYY3); test: KINOMEscan; type: binding; details: read-out: Percent Control
T24 construct: purchased Eurofins DiscoverX KINOMEscan (scanMAX 468)

HASPIN = biological target: T25, HASPIN (Homo sapiens, UniProt Q8TF76); test: KINOMEscan; type: binding; details: read-out: Percent Control
T25 construct: purchased Eurofins DiscoverX KINOMEscan (scanMAX 468)

ALK(L1196M) = biological target: T26, ALK(L1196M) (Homo sapiens, UniProt Q9UM73, L1196M); test: KINOMEscan; type: binding; details: read-out: Percent Control
T26 construct: purchased Eurofins DiscoverX KINOMEscan (scanMAX 468)

HUNK = biological target: T27, HUNK (Homo sapiens, UniProt P57058); test: KINOMEscan; type: binding; details: read-out: Percent Control
T27 construct: purchased Eurofins DiscoverX KINOMEscan (scanMAX 468)

BUB1 = biological target: T28, BUB1 (Homo sapiens, UniProt O43683); test: KINOMEscan; type: binding; details: read-out: Percent Control
T28 construct: purchased Eurofins DiscoverX KINOMEscan (scanMAX 468)

MKK7 = biological target: T29, MKK7 (Homo sapiens, UniProt O14733); test: KINOMEscan; type: binding; details: read-out: Percent Control
T29 construct: purchased Eurofins DiscoverX KINOMEscan (scanMAX 468)

KIT = biological target: T30, KIT (Homo sapiens, UniProt P10721); test: KINOMEscan; type: binding; details: read-out: Percent Control
T30 construct: purchased Eurofins DiscoverX KINOMEscan (scanMAX 468)

KIT(V559D,T670I) = biological target: T31, KIT(V559D,T670I) (Homo sapiens, UniProt P10721, T670I/V559D); test: KINOMEscan; type: binding; details: read-out: Percent Control
T31 construct: purchased Eurofins DiscoverX KINOMEscan (scanMAX 468)

Caco2 = system: Caco2; set-up: method as in ref 14 (a number printed in a supplementary file, which may have a reference list of its own: not looked up in the article's list); details: DB18[a], footnote not given; read-out: Cytotoxic studies IC50 Caco2; cited from earlier work
SNRK = biological target: T32, SNRK (Homo sapiens, UniProt Q9NRH2); test: KINOMEscan; type: binding; details: read-out: Percent Control
T32 construct: purchased Eurofins DiscoverX KINOMEscan (scanMAX 468)

STK33 = biological target: T33, STK33 (Homo sapiens, UniProt Q9BYT3); test: KINOMEscan; type: binding; details: read-out: Percent Control
T33 construct: purchased Eurofins DiscoverX KINOMEscan (scanMAX 468)

FLT3 = biological target: T34, FLT3 (Homo sapiens, UniProt P36888); test: KINOMEscan; type: binding; details: read-out: Percent Control
T34 construct: purchased Eurofins DiscoverX KINOMEscan (scanMAX 468)

PRKCH = biological target: T35, PRKCH (Homo sapiens, UniProt P24723); test: KINOMEscan; type: binding; details: read-out: Percent Control
T35 construct: purchased Eurofins DiscoverX KINOMEscan (scanMAX 468)

ROCK1 = biological target: T36, ROCK1 (Homo sapiens, UniProt Q13464); test: KINOMEscan; type: binding; details: read-out: Percent Control
T36 construct: purchased Eurofins DiscoverX KINOMEscan (scanMAX 468)

WNK3 = biological target: T37, WNK3 (Homo sapiens, UniProt Q9BYP7); test: KINOMEscan; type: binding; details: read-out: Percent Control
T37 construct: purchased Eurofins DiscoverX KINOMEscan (scanMAX 468)

CDK8 = biological target: T38, CDK8 (Homo sapiens, UniProt P49336); test: KINOMEscan; type: binding; details: read-out: Percent Control
T38 construct: purchased Eurofins DiscoverX KINOMEscan (scanMAX 468)

ARK5 = biological target: T39, ARK5 (Homo sapiens, UniProt O60285); test: KINOMEscan; type: binding; details: read-out: Percent Control
T39 construct: purchased Eurofins DiscoverX KINOMEscan (scanMAX 468)

DMPK = biological target: T40, DMPK (Homo sapiens, UniProt Q09013); test: KINOMEscan; type: binding; details: read-out: Percent Control
T40 construct: purchased Eurofins DiscoverX KINOMEscan (scanMAX 468)

MEK4 = biological target: T41, MEK4 (Homo sapiens, UniProt P45985); test: KINOMEscan; type: binding; details: read-out: Percent Control
T41 construct: purchased Eurofins DiscoverX KINOMEscan (scanMAX 468)

Cc1ccc(-n2cc(COc3cccc4cnc(Nc5cccc(Cl)c5)nc34)nn2)c([N+](=O)[O-])c1 [DB18]
remaining binding at 1 µM (CAMK1G): 100% | remaining binding at 1 µM (PIK3CA(M1043I)): 100% | remaining binding at 1 µM (GRK3): 89% | remaining binding at 1 µM (PRKR): 97% | remaining binding at 1 µM (CAMK1): 100% | remaining binding at 1 µM (ACVRL1): 93% | remaining binding at 1 µM (TSSK1B): 100% | remaining binding at 1 µM [1]: 93% | remaining binding at 1 µM (PIK3CA(E545K)): 66% | remaining binding at 1 µM (SBK1): 100% | remaining binding at 1 µM (LIMK2): 100% | remaining binding at 1 µM [2]: 100% | remaining binding at 1 µM (CIT): 100% | remaining binding at 1 µM (TNK2): 100% | remaining binding at 1 µM (EGFR): 97% | remaining binding at 1 µM (MAP4K3): 95% | remaining binding at 1 µM (FAK): 100% | remaining binding at 1 µM (MAP3K15): 93% | remaining binding at 1 µM [3]: 98% | remaining binding at 1 µM (PFTK1): 100% | remaining binding at 1 µM (EGFR(G719S)): 100% | remaining binding at 1 µM (ERK5): 100% | remaining binding at 1 µM (MEK2): 89% | remaining binding at 1 µM (PLK2): 100% | remaining binding at 1 µM (HASPIN): 72% | remaining binding at 1 µM (ALK(L1196M)): 98% | remaining binding at 1 µM (HUNK): 90% | remaining binding at 1 µM (BUB1): 97% | remaining binding at 1 µM (MKK7): 100% | remaining binding at 1 µM (KIT): 100% | remaining binding at 1 µM (KIT(V559D,T670I)): 96% | IC50 (Caco2): 37 µM | remaining binding at 1 µM (SNRK): 100% | remaining binding at 1 µM (STK33): 100% | remaining binding at 1 µM (FLT3): 84% | remaining binding at 1 µM (PRKCH): 100% | remaining binding at 1 µM (ROCK1): 100% | remaining binding at 1 µM (WNK3): 100% | remaining binding at 1 µM (CDK8): 100% | remaining binding at 1 µM (ARK5): 100% | remaining binding at 1 µM (DMPK): 100% | remaining binding at 1 µM (MEK4): 100%
